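Each compound was tested at five concentrations against cells in 96-well plates for 48 hours. At the GI50, growth is halved.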 Calls of active or inactive are those of the source. No stated cut-off is given here; in the data, active = GI50 up to about 1.1 µM and inactive = higher.
Tests used:
Experiment in all cases: NCI-60 cell line screen, 48 h
SK-MEL-2 = system: SK-MEL-2
IGROV-1 = system: IGROV-1
DU-145 = system: DU-145
NCI-H522 = system: NCI-H522
COLO 205 = system: COLO 205
NCI-H226 = system: NCI-H226
Hs-578T = system: Hs-578T
EKVX = system: EKVX
HOP-62 = system: HOP-62
OVCAR-4 = system: OVCAR-4
RXF 393 = system: RXF 393
TK-10 = system: TK-10
K562 = system: K562
A549 = system: A549
MDA-MB-231 = system: MDA-MB-231
KM12 = system: KM12
SNB-19 = system: SNB-19
OVCAR-3 = system: OVCAR-3
HT-29 = system: HT-29
SF-539 = system: SF-539
UACC-62 = system: UACC-62
NCI-H23 = system: NCI-H23
SK-MEL-28 = system: SK-MEL-28
HCT-116 = system: HCT-116
ACHN = system: ACHN
PC-3 = system: PC-3
Malme-3M = system: Malme-3M
BT-549 = system: BT-549
MDA-N = system: MDA-N
CCRF-CEM = system: CCRF-CEM
MOLT-4 = system: MOLT-4
SR = system: SR
A498 = system: A498
RPMI-8226 = system: RPMI-8226
OVCAR-8 = system: OVCAR-8
HCT-15 = system: HCT-15
U-251 = system: U-251
SW-620 = system: SW-620
LOX IMVI = system: LOX IMVI
OVCAR-5 = system: OVCAR-5
786-0 = system: 786-0
NCI-H460 = system: NCI-H460
HL-60 = system: HL-60
SK-MEL-5 = system: SK-MEL-5
M14 = system: M14
SF-268 = system: SF-268
SK-OV-3 = system: SK-OV-3
SN12C = system: SN12C
NCI/ADR-RES = system: NCI/ADR-RES
CAKI-1 = system: CAKI-1
MCF7 = system: MCF7
UACC-257 = system: UACC-257
SF-295 = system: SF-295
HCC 2998 = system: HCC 2998
MDA-MB-435 = system: MDA-MB-435
T47D = system: T47D

## COc1ccc(N2C(=O)C3c4[nH]c5ccc(Br)cc5c4C4CCC(C(C)(C)C)CC4C3C2=O)cc1 (stereo not given)
SK-MEL-2
  GI50: > 100 µM (inactive)
IGROV-1
  GI50: > 100 µM (inactive)
DU-145
  GI50: > 100 µM (inactive)
NCI-H522
  GI50: > 100 µM (inactive)
COLO 205
  GI50: > 100 µM (inactive)
NCI-H226
  GI50: > 100 µM (inactive)
Hs-578T
  GI50: > 100 µM (inactive)
EKVX
  GI50: > 100 µM (inactive)
HOP-62
  GI50: > 100 µM (inactive)
OVCAR-4
  GI50: > 100 µM (inactive)
RXF 393
  GI50: > 100 µM (inactive)
TK-10
  GI50: > 100 µM (inactive)
K562
  GI50: > 100 µM (inactive)
A549
  GI50: > 100 µM (inactive)
MDA-MB-231
  GI50: 82 µM (inactive)
KM12
  GI50: > 100 µM (inactive)
SNB-19
  GI50: > 100 µM (inactive)
OVCAR-3
  GI50: > 100 µM (inactive)
HT-29
  GI50: > 100 µM (inactive)
SF-539
  GI50: > 100 µM (inactive)
UACC-62
  GI50: > 100 µM (inactive)
NCI-H23
  GI50: > 100 µM (inactive)
SK-MEL-28
  GI50: > 100 µM (inactive)
HCT-116
  GI50: > 100 µM (inactive)
ACHN
  GI50: > 100 µM (inactive)
PC-3
  GI50: > 100 µM (inactive)
Malme-3M
  GI50: 91.8 µM (inactive)
BT-549
  GI50: > 100 µM (inactive)
MDA-N
  GI50: > 100 µM (inactive)
CCRF-CEM
  GI50: > 100 µM (inactive)
MOLT-4
  GI50: > 100 µM (inactive)
SR
  GI50: > 100 µM (inactive)
A498
  GI50: > 100 µM (inactive)
RPMI-8226
  GI50: > 100 µM (inactive)
OVCAR-8
  GI50: > 100 µM (inactive)
HCT-15
  GI50: > 100 µM
U-251
  GI50: > 100 µM (inactive)
SW-620
  GI50: > 100 µM (inactive)
LOX IMVI
  GI50: > 100 µM (inactive)
OVCAR-5
  GI50: > 100 µM (inactive)
786-0
  GI50: > 100 µM (inactive)
NCI-H460
  GI50: > 100 µM (inactive)
HL-60
  GI50: > 100 µM (inactive)
SK-MEL-5
  GI50: > 100 µM (inactive)
M14
  GI50: 94.2 µM (inactive)
SF-268
  GI50: > 100 µM (inactive)
SK-OV-3
  GI50: > 100 µM (inactive)
SN12C
  GI50: > 100 µM (inactive)
NCI/ADR-RES
  GI50: > 100 µM (inactive)
CAKI-1
  GI50: > 100 µM (inactive)
MCF7
  GI50: > 100 µM (inactive)
UACC-257
  GI50: > 100 µM (inactive)
SF-295
  GI50: > 100 µM (inactive)
HCC 2998
  GI50: > 100 µM (inactive)
MDA-MB-435
  GI50: > 100 µM (inactive)

## C[n+]1c2ccccc2c(N=[N+]=[N-])c2ccccc21
SK-MEL-2
  GI50: > 10 µM (inactive)
IGROV-1
  GI50: 7.03 µM (inactive)
DU-145
  GI50: > 10 µM (inactive)
NCI-H522
  GI50: 8.87 µM (inactive)
COLO 205
  GI50: 4.29 µM (inactive)
NCI-H226
  GI50: 6.27 µM (inactive)
Hs-578T
  GI50: > 10 µM (inactive)
EKVX
  GI50: 8.32 µM (inactive)
HOP-62
  GI50: > 10 µM (inactive)
OVCAR-4
  GI50: 4.26 µM (inactive)
RXF 393
  GI50: > 10 µM (inactive)
TK-10
  GI50: 6.97 µM (inactive)
K562
  GI50: 5.82 µM (inactive)
A549
  GI50: 6.44 µM (inactive)
MDA-MB-231
  GI50: 8.63 µM (inactive)
KM12
  GI50: > 10 µM (inactive)
SNB-19
  GI50: 9.18 µM (inactive)
OVCAR-3
  GI50: > 10 µM (inactive)
HT-29
  GI50: 3.93 µM (inactive)
T47D
  GI50: > 10 µM (inactive)
SF-539
  GI50: 4.83 µM (inactive)
UACC-62
  GI50: 7.73 µM (inactive)
NCI-H23
  GI50: 4.22 µM (inactive)
SK-MEL-28
  GI50: > 10 µM (inactive)
HCT-116
  GI50: 4.22 µM (inactive)
ACHN
  GI50: 4.13 µM (inactive)
PC-3
  GI50: 5.37 µM (inactive)
Malme-3M
  GI50: 5.42 µM (inactive)
BT-549
  GI50: > 10 µM (inactive)
CCRF-CEM
  GI50: 3.33 µM (inactive)
MOLT-4
  GI50: 4.69 µM (inactive)
SR
  GI50: 4.13 µM (inactive)
A498
  GI50: 6.3 µM (inactive)
RPMI-8226
  GI50: 5.08 µM (inactive)
OVCAR-8
  GI50: 6.46 µM (inactive)
HCT-15
  GI50: 5.66 µM
U-251
  GI50: 9.93 µM (inactive)
SW-620
  GI50: 6.28 µM (inactive)
LOX IMVI
  GI50: 2.94 µM (inactive)
OVCAR-5
  GI50: > 10 µM (inactive)
786-0
  GI50: 4.53 µM (inactive)
NCI-H460
  GI50: 4.26 µM (inactive)
HL-60
  GI50: 9.18 µM (inactive)
SK-MEL-5
  GI50: > 10 µM (inactive)
M14
  GI50: > 10 µM (inactive)
SF-268
  GI50: > 10 µM (inactive)
SK-OV-3
  GI50: > 10 µM (inactive)
SN12C
  GI50: 7.03 µM (inactive)
NCI/ADR-RES
  GI50: > 10 µM (inactive)
CAKI-1
  GI50: > 10 µM (inactive)
MCF7
  GI50: 6.95 µM (inactive)
UACC-257
  GI50: > 10 µM (inactive)
SF-295
  GI50: > 10 µM (inactive)
HCC 2998
  GI50: > 10 µM (inactive)
MDA-MB-435
  GI50: 7.14 µM (inactive)

Reference: ChEMBL document CHEMBL1201862, “PubChem BioAssay data set” (2004)
